Test results reported in US8901035B2, “Herbicidal compositions comprising 4-amino-3-chloro-5-fluoro-6-(4-chloro-2-fluoro-3-methoxyphenyl) pyridine-2-carboxylic acid or a derivative thereof and cellulose biosynthesis inhibitor herbicides” (Dow AgroSciences LLC, priority 2012, dated 2014).

Experiments:
Type in all cases: in vivo
[1] = system: Brachiaria platyphylla (Griseb.) Nash or Urochloa platyphylla (Nash) R.D. Webster (BRAPP); assay: Postemergence foliar-applied herbicidal mixtures, weed control in direct seeded rice (greenhouse)
Text: (§1) Seeds or nutlets of the desired test plant species were planted in a soil matrix prepared by mixing a loam or sandy loam soil (e.g., 28.6 percent silt, 18.8 percent clay, and 52.6 percent sand, with a pH of about 5.8 and an organic matter content of about 1.8 percent) and calcareous grit in an 80 to 20 ratio. The soil matrix was contained in plastic pots with a volume of 1 quart and a surface area of 83.6 square centimeters (cm^2). When required to ensure good germination and healthy plants, a fungicide treatment and/or other chemical or physical treatment was applied. The plants were grown for 8-22 days in a greenhouse with an approximate 14 h photoperiod which was maintained at about 29° C. during the day and 26° C. during the night. Nutrients (Peters Excel® 15-5-15 5-Ca 2-Mg and iron chelate) were applied in the irrigation solution as needed and water was added on a regular basis. Supplemental lighting was provided with overhead metal halide 1000-Watt lamps as necessary. The plants were employed for testing when they reached the first through fourth true leaf stage.
(§2) Treatments consisted of the acid or esters of 4-amino-3-chloro-5-fluoro-6-(4-chloro-2-fluoro-3-methoxy-phenyl) pyridine-2-carboxylic acid (Compound A), each formulated as an SC (suspension concentrate), and various herbicidal components alone and in combination. Forms of compound A were applied on an acid equivalent basis.
(§3) Other herbicidal components were applied on an active ingredient basis and included cellulose biosynthesis-inhibiting (CBI) herbicides isoxaben formulated as Gallery® 75DF and indaziflam formulated as Specticle® 20WSP.
(§4) Treatment requirements were calculated based upon the rates being tested, the concentration of active ingredient or acid equivalent in the formulation, and a 12 mL application volume at a rate of 187 L/ha.
(§5) For treatments comprised of formulated compounds, measured amounts of compounds were placed individually in 25 mL glass vials and diluted in a volume of 1.25% (v/v) Agri-Dex® crop oil concentrated to obtain 12× stock solutions. […] Application solutions were prepared by adding an appropriate amount of each stock solution (e.g., 1 mL) and diluted to the appropriate final concentrations with the addition of 10 mL of an aqueous mixture of 1.25% (v/v) crop oil concentrate so that the final spray solutions contained 1.25+/−0.05% (v/v) crop oil concentrate.
(§6) All stock solutions and applications solutions were visually inspected for compound compatibility prior to application. Spray solutions were applied to the plant material with an overhead Mandel track sprayer equipped with a 8002E nozzles calibrated to deliver 187 L/ha over an application area of 0.503 m^2 at a spray height of 18 to 20 inches (46 to 50 cm) above average plant canopy height. Control plants were sprayed in the same manner with the solvent blank.
(§7) The treated plants and control plants were placed in a greenhouse as described above and watered by sub-irrigation to prevent wash-off of the test compounds. After approximately 3 weeks, the condition of the test plants as compared with that of the untreated plants was determined visually and scored on a scale of 0 to 100 percent where 0 corresponds to no injury or growth inhibition and 100 corresponds to complete kill.
(§8) Colby's equation was used to determine the herbicidal effects expected from the mixtures (Colby, S. R. 1967. Calculation of the synergistic and antagonistic response of herbicide combinations. Weeds 15:20-22).
(§9) The following equation was used to calculate the expected activity of mixtures containing two active ingredients, A and B: Expected=A+B−(A×B/100)
(§10) A=observed efficacy of active ingredient A at the same concentration as used in the mixture.
(§11) B=observed efficacy of active ingredient B at the same concentration as used in the mixture.

Cyperus iria L. (CYPIR) = assay: as above
Text: as §1, §2, §3, §4, §5, §6, §7, §8, §9, §10, §11

[2] = system: Digitaria sanguinalis (L.) Scop. (DIGSA); assay: as above
Text: as §1, §2, §3, §4, §5, §6, §7, §8, §9, §10, §11

[3] = system: Ipomoea hederacea (L.) Jacq. (IPOHE); assay: Pre-emergence soil-applied herbicidal mixtures for weed control (greenhouse)
Text: (§12) Seeds or nutlets of the desired test plant species were planted in a soil matrix prepared by mixing a loam soil (e.g., 32 percent silt, 23 percent clay, and 45 percent sand, with a pH of about 6.5 and an organic matter content of about 1.9 percent) and calcareous grit in an 80 to 20 ratio. The soil matrix was contained in plastic pots with a volume of 1 quart and a surface area of 83.6 square centimeters (cm^2).
(§13) Treatments consisted of the benzyl ester of 4-amino-3-chloro-5-fluoro-6-(4-chloro-2-fluoro-3-methoxy-phenyl)pyridine-2-carboxylic acid (compound A) formulated as an SC (suspension concentrate) and various herbicidal components alone and in combination. Forms of compound A were applied on an acid equivalent basis.
(§14) Other herbicidal components were applied on an acid equivalent or active ingredient basis and included the cellulose biosynthesis inhibiting herbicides, isoxaben formulated as Gallery® 75DF and indaziflam formulated as Specticle® 20WSP.
as §4
(§15) For treatments comprised of formulated compounds, measured amounts of compounds were placed individually in 25 mL glass vials and diluted in a volume of 1.25% (v/v) Agri-Dex® crop oil concentrate (COC) to obtain 12× stock solutions. […] Application solutions were prepared by adding an appropriate amount of each stock solution (e.g., 1 mL) and diluted to the appropriate final concentrations with the addition of 10 mL of an aqueous mixture of 1.25% (v/v) COC so that the final spray solutions contained 1.25% (v/v) COC.
(§16) All stock solutions and applications solutions were visually inspected for compound compatibility prior to application. Spray solutions were applied to the soil with an overhead Mandel track sprayer equipped with a 8002E nozzles calibrated to deliver 187 L/ha over an application area of 0.503 m^2 at a spray height of 18 inches (46 cm) above average pot height. Control pots were sprayed in the same manner with the solvent blank.
(§17) The treated and control pots were placed in a greenhouse and top watered as needed. When required to ensure good germination and healthy plants, a fungicide treatment and/or other chemical or physical treatment was applied. The pots were maintained in a greenhouse with an approximate 14 hr. photoperiod which was maintained at about 29° C. during the day and 26° C. during the night. Nutrients (Peters® Excel 15-5-15 5-Ca 2-Mg) were applied in the irrigation solution as needed and water was added on a regular basis. Supplemental lighting was provided with overhead metal halide 1000-Watt lamps as necessary. After approximately 4 weeks, the condition of the test plants as compared with that of the untreated plants was determined visually and scored on a scale of 0 to 100 percent where 0 corresponds to no injury or growth inhibition and 100 corresponds to complete kill.
as §8, §9, §10, §11

[4] = system: Xanthium strumarium L. (XANST); assay: as above
Text: as §12, §13, §14, §4, §15, §16, §17, §8, §9, §10, §11

[5] = system: Abutilon theophrasti Medik. (ABUTH); assay: as above
Text: as §12, §13, §14, §4, §15, §16, §17, §8, §9, §10, §11

[6] = system: Setaria faberi Herrm. (SETFA); assay: as above
Text: as §12, §13, §14, §4, §15, §16, §17, §8, §9, §10, §11

[7] = Compound A Benzyl Ester 4.38 g ae/ha alone
[8] = Compound A Benzyl Ester 8.75 g ae/ha alone
[9] = Compound A Benzyl Ester 17.5 g ae/ha alone
[10] = Compound A Benzyl Ester 16 g ae/ha alone
[11] = Compound A Benzyl Ester 32 g ae/ha alone

Question: Which results are given for `COc1c(Cl)ccc(-c2nc(C(=O)OCc3ccccc3)c(Cl)c(N)c2F)c1F` [Compound A Benzyl Ester, benzyl ester of 4-amino-3-chloro-5-fluoro-6-(4-chloro-2-fluoro-3-methoxy-phenyl)pyridine-2-carboxylic acid]?
Answer: Visual Weed Control (%) - 20 DAA Obs [1, 7]: 70%; Visual Weed Control (%) - 20 DAA Obs [1, 8]: 80%; Visual Weed Control (%) - 20 DAA Obs [1, 9]: 90%; Visual Weed Control (%) - 20 DAA Obs (Cyperus iria L. (CYPIR); [7]): 70%; Visual Weed Control (%) - 21 DAA Obs [2, 7]: 10%; Visual Weed Control (%) - 20 DAA Obs [2, 8]: 30%; Visual Weed Control (%) - 21 DAA Obs [2, 8]: 45%; Visual Weed Control (%) - 20 DAA Obs [2, 9]: 30%; Visual Weed Control (%) - 21 DAA Obs [2, 9]: 70%; Visual Weed Control (%) - 28 DAA IPOHE Obs [3, 10]: 13%; Visual Weed Control (%) - 28 DAA IPOHE Obs [3, 11]: 23%; Visual Weed Control (%) - 28 DAA XANST Obs [4, 10]: 0%; Visual Weed Control (%) - 28 DAA XANST Obs [4, 11]: 5%; Visual Weed Control (%) - 27 DAA ABUTH Obs [5, 10]: 48%; Visual Weed Control (%) - 27 DAA ABUTH Obs [5, 11]: 87%; Visual Weed Control (%) - 27 DAA SETFA Obs [6, 10]: 8%; Visual Weed Control (%) - 27 DAA SETFA Obs [6, 11]: 15%

Question: How did the “Visual Weed Control (%) - 20 DAA Obs” value ([1]; Isoxaben 140 g ai/ha alone) turn out when `CCC(C)(CC)c1cc(NC(=O)c2c(OC)cccc2OC)on1` [Isoxaben, N-[3-(1-ethyl-1-methylpropyl)-5-isoxazolyl]-2,6-dimethoxybenzamide, reference compound] was run?
Answer: Its value is 0%.

Question: What about the “Visual Weed Control (%) - 20 DAA Obs” value ([1]; Isoxaben 280 g ai/ha alone) of the same compound?
Answer: Its value is 0%.

Question: What about the “Visual Weed Control (%) - 20 DAA Obs” value ([1]; Isoxaben 560 g ai/ha alone) of the same compound?
Answer: Its value is 20%.

Question: What about the “Visual Weed Control (%) - 20 DAA Obs” value (Cyperus iria L. (CYPIR); Isoxaben 140 g ai/ha alone) of the same compound?
Answer: The value was 10%.

Question: What about the “Visual Weed Control (%) - 20 DAA Obs” value (Cyperus iria L. (CYPIR); Isoxaben 280 g ai/ha alone) of the same compound?
Answer: The value was 60%.

Question: And the “Visual Weed Control (%) - 20 DAA Obs” value (Cyperus iria L. (CYPIR); Isoxaben 560 g ai/ha alone)?
Answer: The value was 50%.

Question: What about the “Visual Weed Control (%) - 20 DAA Obs” value ([2]; Isoxaben 280 g ai/ha alone) of the same compound?
Answer: Its value is 10%.

Question: And the “Visual Weed Control (%) - 20 DAA Obs” value ([2]; Isoxaben 560 g ai/ha alone)?
Answer: The value was 20%.

Question: And the “Visual Weed Control (%) - 27 DAA ABUTH Obs” value ([5]; Isoxaben 560 g ai/ha alone)?
Answer: Its value is 77%.

Question: What about the “Visual Weed Control (%) - 27 DAA ABUTH Obs” value ([5]; Isoxaben 1120 g ai/ha alone) of the same compound?
Answer: The value was 67%.
